We go through two molecules from patent publication US20120245180A1, “COMBINATION” (GlaxoSmithKline LLC, priority 2009, published 2012).

SMILES strings stand for the structures. Read-outs that look alike come from different tables or passages of the source.

What all share (assay): Cell growth inhibition assay, breast tumor cell line (Cell Titer Glo)
Common to all, as to assay type: cell-based

Assay [1] deals with HCC1937. As to conditions: Homo sapiens, 72 h, HCC1937 (HER2−), 3 days. The protocol: (§1) Human tumor cell lines from hepatocellular carcinoma (HCC), C3A, Hep3B, HepG2, PLC/PRF/5, SNU182, SNU387, SNU398, SNU423, SNU449 and SNU475 were purchased from the ATCC. Human breast tumor cell lines, HCC2218, HCC1419, BT-474, SK-BR-3, UACC893, JIMT-1, MDA-MB-361, HCC202, MDA-MB-175-VII, HCC1569, HCC1937, HCC38, MDA-MB-157, HCC1954, HCC1500, BT483, KPL-1, SUM225 and ZR-75-1 from ATCC, SUM52 and SUM190 from Asterand, PLC (Detroit Mich.), were cultured in RPMI 1640 medium containing 10% FBS; SKBR3-W13 and BT-474-J4 cultured in RPMI 1640 medium containing 10% FBS and 1 μM lapatinib; KPL4 line was kindly provided by Dr Junichi Kurebayashi (Kawasaki Medical School, Okayama, Japan) and cultured in DMEM containing 5% FBS. JIMT-1 from European Collection of Cell Cultures (UK), is a line derived from a patient clinically resistant to trastuzumab (Herceptin®). SK-BR-3-W13 is a single cell clone isolated by a cloning cylinder after a single treatment of SK-BR-3 cells with 0.5 μM lapatinib. BT-474-J4 is a single cell clone derived from a pool of BT-474 cells that were selected to grow in lapatinib to a concentration of 3 μM.
(§2) Cells were seeded in a 96-well tissue culture plate (NUNC 136102) of RPMI medium containing 10% FBS at 500-2,000 cells per well. Approximately 24 hours after plating, cells were exposed to ten, two-fold or three-fold serial dilutions of either Compound A or B or the combination of the two agents at a 2:1 molar ratio (Compounds A and B respectively). In some cases, cells were grown in RPMI media containing 10% FBS and in the presence or absence of 2 ng/mL hepatocyte growth factor (HGF). Cells were incubated in the presence of compounds for 3 days. ATP levels were determined by adding Cell Titer Glo® (Promega) according to the manufacturer's protocol. Briefly, Cell Titer Glo® was added to each plate, incubated for 20 minutes then luminescent signal was read on the SpectraMax L plate reader with a 0.5 sec integration time. All assays were run at least in duplicate.
(§3) Inhibition of cell growth was estimated after treatment with compound or combination of compounds for three days and comparing the signal to cells treated with vehicle (DMSO). Cell growth was calculated relative to vehicle (DMSO) treated control wells. Concentration of compound that inhibits 50% of control cell growth (IC50) was back-interpolated when y=50% of DMSO treated control wells using nonlinear regression with the equation: […]
(§4) where A is the minimum response (ymin), B is the maximum response (Ymax), C is the inflection point of the curve (EC50) and D is the Hill coefficient.
(§5) Combination effects on potency were evaluated using the Combination Index (CI) and Excess Over Highest Single Agent (EHOSA) methods.
(§6) DNA Copy number data on the HER2 gene was collected for all breast cancer cell lines using the Affymetrix 500K chip (Affymetrix Inc, Sunnyvale, Calif.). Briefly DNA was extracted from each line, digested with the restriction enzyme Nsp or Sty, ligated to an adaptor and amplified by PCR. After PCR, DNA was fragmented, labeled, denatured, and hybridized to the Affymetrix 500K chip. Upon completion of hybridization, each assay was washed and stained. Image data were acquired. Similarly collected data from a panel 10 diploid non-tumorigenic lymphoblastic cell lines were used to calculate DNA copy number. All ‘SNP Chip’ images ('CEL files'), were extracted, read and normalized using the dChip software package (Lin et al. 2004. Bioinformatics. 20:1233-40). SNP-wise ‘copy-number ratios’ (log2 scale) were calculated for all cancer cell lines using the lymphoblastic reference panel and analyzed by circular binary segmentation to reduce noise (Olshen et al. 2004. Biostatistics. 5:557-72). Cell lines with log2 ratios of HER2>0.65 were considered HER2+.

Assay [2] has as its system SUM225. The conditions noted are these: Homo sapiens, 72 h, SUM225 (HER2+), 3 days. The protocol: as §1, §2, §3, §4, §5, §6
The test system of assay [3] is HCC2218. As to conditions: Homo sapiens, 72 h, HCC2218 (HER2+), 3 days. On the procedure:
as §1, §2, §3, §4, §5, §6

Assay [4] deals with MDA-MB-175-VII. The conditions noted are these: Homo sapiens, 72 h, MDA-MB-175-VII (HER2−), 3 days. The protocol:
as §1, §2, §3, §4, §5, §6

Assay [5] has as its system JIMT-1. As to conditions: Homo sapiens, 72 h, JIMT-1 (HER2+), 3 days. On the procedure:
as §1, §2, §3, §4, §5, §6

Assay [6] deals with HCC1569. As to conditions: Homo sapiens, 72 h, HCC1569 (HER2−), 3 days. On the procedure: as §1, §2, §3, §4, §5, §6
For assay [7], the system named is BT483. The conditions noted are these: Homo sapiens, BT-483, 72 h, BT483 (HER2−), 3 days. On the procedure: as §1, §2, §3, §4, §5, §6
The test system of assay [8] is HCC1954. As to conditions: Homo sapiens, 72 h, HCC1954 (HER2+), 3 days. The protocol:
as §1, §2, §3, §4, §5, §6

In assay [9] the test system is HCC202. The conditions noted are these: Homo sapiens, 72 h, HCC202 (HER2+), 3 days. The protocol:
as §1, §2, §3, §4, §5, §6

The subject of assay [10] is BT474-J4. As to conditions: Homo sapiens, 72 h, BT474-J4 (HER2+), 3 days. On the procedure: as §1, §2, §3, §4, §5, §6
Assay [11] deals with ZR-75-1. As to conditions: Homo sapiens, 72 h, ZR-75-1 (HER2−), 3 days. The protocol:
as §1, §2, §3, §4, §5, §6

Assay [12] concerns SUM52. As to conditions: Homo sapiens, 72 h, SUM52 (HER2−), 3 days. On the procedure:
as §1, §2, §3, §4, §5, §6

Assay [13] concerns SUM190. As to conditions: Homo sapiens, 72 h, SUM190 (HER2+), 3 days. The protocol: as §1, §2, §3, §4, §5, §6
Where [14] appears, read: read-out: Single agent IC50, Compound A.
Where [15] appears, read: read-out: Single agent IC50, Compound B.

As for `CC(=O)Nc1cccc(-n2c(=O)n(C3CC3)c(=O)c3c(Nc4ccc(I)cc4F)n(C)c(=O)c(C)c32)c1` [Compound A, N-{3-[3-cyclopropyl-5-[(2-fluoro-4-iodophenyl)amino]-6,8-dimethyl-2,4,7-trioxo-3,4,6,7-tetrahydropyrido[4,3-d]pyrimidin-1(2H)-yl]phenyl}acetamide], the IC50 in assay [1] (setting [14]) is over 1000 nM; in assay [2] (setting [14]), over 1000 nM; in assay [3] (setting [14]) it was over 1000 nM; in [4] (setting [14]) it was 99 ± 97 nM; in assay [5] (setting [14]), over 1000 nM; in [6] (setting [14]), over 1000 nM. For the same molecule, the IC50 is over 1000 nM in assay [7] (setting [14]); 1020 ± 839 nM in assay [8] (setting [14]); over 1000 nM in [9] (setting [14]); over 1000 nM in assay [10] (setting [14]); over 1000 nM in assay [11] (setting [14]); 9 ± 5 nM in assay [12] (setting [14]). For the same molecule, the IC50 in [13] (setting [14]) was over 1000 nM.
As for `COc1ncc(-c2ccc3nccc(-c4ccnnc4)c3c2)cc1NS(=O)(=O)c1ccc(F)cc1F` [Compound B, 2,4-difluoro-N-{2-(methyloxy)-5-[4-(4-pyridazinyl)-6-quinolinyl]-3-pyridinyl}benzenesulfonamide], the IC50 in assay [1] (setting [15]) stood at 114 ± 63 nM; in assay [2] (setting [15]) it was 13 ± 14 nM; in [3] (setting [15]), 18 ± 13 nM; in assay [4] (setting [15]), 7 ± 1 nM; in [5] (setting [15]), 28 ± 5 nM; in assay [6] (setting [15]), 76 ± 42 nM. The IC50 in assay [7] (setting [15]) amounted to 106 ± 81 nM; in assay [8] (setting [15]), 11 ± 3 nM; in assay [9] (setting [15]), 45 ± 4 nM; in assay [10] (setting [15]), 14 ± 8 nM; in assay [11] (setting [15]), 6 ± 1 nM; in [12] (setting [15]), 4 nM. Further, in [13] (setting [15]), the IC50 is 6 ± 3 nM.

One may read the IC50 as the midpoint of a concentration-inhibition curve.
